In patent US8901118B2, “Compounds and methods for kinase modulation, and indications therefor” (Plexxikon Inc., priority 2010, dated 2014):

Tests used:
[1] = target: Fms kinase (Homo sapiens, UniProt P07333); assay: Fms kinase biochemical activity assay (AlphaScreen, biotin-(E4Y)10 phosphorylation); details: 100 μM ATP; read-out: Biochemical Inhibition IC50 Fms
Protocol: In one assay the biochemical activity IC50 values are determined with respect to inhibition of Fms kinase activity, where inhibition of phosphorylation of a peptide substrate is measured as a function of compound concentration. Compounds to be tested, dissolved in DMSO (1 μL), are added to a white 384-well plate (Costar #3705). Working stocks of Fms kinase (Invitrogen #PV3249), biotin-(E4Y)10 substrate (Upstate Biotech, Cat#12-440), and ATP (Sigma, Cat#A-3377) are prepared in 25 mM Hepes pH 7.5, 0.5 mM MgCl2, 2 mM MnCl2, 2 mM DTT, 0.01% BSA, and 0.01% Tween-20. All components are added to the 384-well plate for a final concentration of 1 ng/well Fms, 30 nM biotin-(E4Y)10 (Upstate Biotechnology) and 100 μM ATP in a volume of 20 μL. Each sample is at 5% DMSO. The plate is then incubated for 20 minutes at 30° C. Just before use, working stocks of donor and acceptor beads from the AlphaScreen PY20 Detection Kit (PerkinElmer, Cat#676601M) are prepared in 25 mM Hepes pH 7.5, pH 7.4, 100 mM EDTA, 0.01% BSA. To stop the reaction, the plate is uncovered in the dark and 5 μL of Donor Beads solution (Streptavidin beads) is added to each well. The plate is incubated at room temperature for 20 minutes. Five microliters of Acceptor Beads solution (PY20 coated beads) are then added to each well. The final concentration of each bead is 10 μg/mL. The plates are incubated at room temperature for 60 minutes. Fluorescence signal is recorded on the Envision reader. Phosphorylated substrate results in binding of the PY20 antibody and association of the donor and acceptor beads such that signal correlates with kinase activity. The signal vs. compound concentration is used to determine the IC50.

[2] = target: TrkA kinase (Homo sapiens, UniProt P04629); assay: TrkA kinase biochemical activity assay (AlphaScreen); details: 100 μM ATP; read-out: Biochemical Inhibition IC50 TrkA
Protocol: In one assay the biochemical activity IC50 values are determined with respect to inhibition of TrkA kinase activity, where inhibition of phosphorylation of a peptide substrate is measured as a function of compound concentration. Compounds to be tested, dissolved in DMSO (1 μL), are added to a white 384-well plate (Costar #3705). Working stocks of TrkA kinase (UBI), biotin-(E4Y)10 substrate (Upstate Biotech, Cat#12-440), and ATP (Sigma, Cat#A-3377) are prepared in 25 mM Hepes pH 7.5, 10 mM MnCl2, 1 mM DTT, 0.01% BSA, and 0.01% Tween-20. All components are added to the 384-well plate for a final concentration of 1 ng/well TrkA, 30 nM biotin-(E4Y)10 and 100 μM ATP in a volume of 20 μL. Each sample is at 5% DMSO. The plate is shaken for 1 minute at 1200 rpm, spun for 1 minute at 1000 rpm, then incubated for 40 minutes at room temperature. Just before use, working stocks of donor and acceptor beads from the AlphaScreen PY20 Detection Kit (PerkinElmer, Cat#676601M) are prepared in 25 mM Hepes pH 7.5, 100 mM EDTA. 0.01% BSA. Donor Beads solution (Streptavidin beads) is added (5 μL) to each well to final bead concentration of 10 μg/mL. The plate is incubated at room temperature for 20 minutes. Acceptor Beads solution (PY20 coated beads) are then added to each well (5 μL) to a final concentration of bead at 10 μg/mL. The plates are incubated at room temperature for 60 minutes. Fluorescence signal is recorded on the Envision reader. Phosphorylated substrate results in binding of the PY20 antibody and association of the donor and acceptor beads such that signal correlates with kinase activity. The signal vs. compound concentration is used to determine the IC50. Similar assays are used for TrkB and Trk C kinase.

[3] = target: CYP2C19 (Homo sapiens, UniProt P33261); assay: CYP2C19 inhibition (fluorescent substrate CEC); format: in vitro ADME; details: read-out: Cyp IC50 2C19
Protocol: (§1) CYP (Cytochrome P450) enzymes are the major drug metabolizing enzymes present in the liver. The inhibition of CYP enzyme activity (IC50) for each of CYP1A2, CYP2C19, CYP2C9, CYP2D6, CYP3A4(BFC) and CYP3A4(BQ) is determined for compounds, where inhibition of metabolism of a known substrate leads to a decrease in the fluorescence of the metabolized product. The fluorescence of the product is monitored as a function of compound concentration. Compounds are dissolved in DMSO to a concentration of 100 mM. These are diluted 1 μL into 82 μL of acetonitrile. An 11 μL aliquot of this solution is then added to 204 μL of cofactor mix (1.3% NADPH Regeneration system Solution A, 1.04% NADPH Regeneration system Solution B from BD Biosciences, 5% acetonitrile and 0.05% DMSO). These are then serially diluted 1:1 (160 μL to 160 μL co-factor mix) for a total of 10 points. A 10 μL aliquot of this final mixture is dispensed into 384 well assay plates and incubated for 10 minutes at 37° C. […] Assay plates are incubated at 37° C. (CYP1A2-15 min; CYP2C9-45 min; CYP2C19, 2D6 and 3A4-30 min) and read in a Tecan Safire 2 plate reader (CYP1A2, 2C19 and 3A4 409 ex/460 em; CYP2C9 and 2D6 409 ex/530 em). The signal versus compound concentration is used to determine the IC50. The enzymes and substrates for this assay are obtained from BD Biosciences.

[4] = target: CYP3A4(BQ) (Homo sapiens, UniProt P08684); assay: CYP3A4(BQ) inhibition; format: in vitro ADME; details: CYP3A4, substrate BQ; read-out: Cyp IC50 3A4(BQ)
Protocol: as §1

Chain of CYP3A4(BQ) (P08684 whole entry): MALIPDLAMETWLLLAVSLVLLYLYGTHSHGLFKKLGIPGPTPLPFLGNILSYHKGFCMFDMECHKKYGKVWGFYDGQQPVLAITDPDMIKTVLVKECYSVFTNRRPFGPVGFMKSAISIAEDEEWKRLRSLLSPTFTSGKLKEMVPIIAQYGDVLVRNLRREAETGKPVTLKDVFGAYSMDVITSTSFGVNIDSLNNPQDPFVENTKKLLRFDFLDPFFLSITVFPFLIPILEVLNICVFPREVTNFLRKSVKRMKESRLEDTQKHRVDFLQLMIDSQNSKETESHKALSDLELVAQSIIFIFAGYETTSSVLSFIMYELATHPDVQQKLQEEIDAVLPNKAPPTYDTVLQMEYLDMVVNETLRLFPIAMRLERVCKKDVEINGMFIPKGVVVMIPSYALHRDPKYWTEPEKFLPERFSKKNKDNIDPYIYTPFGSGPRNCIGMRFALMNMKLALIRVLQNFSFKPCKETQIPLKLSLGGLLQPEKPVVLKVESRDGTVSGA
Chain of CYP2C19 (P33261 whole entry): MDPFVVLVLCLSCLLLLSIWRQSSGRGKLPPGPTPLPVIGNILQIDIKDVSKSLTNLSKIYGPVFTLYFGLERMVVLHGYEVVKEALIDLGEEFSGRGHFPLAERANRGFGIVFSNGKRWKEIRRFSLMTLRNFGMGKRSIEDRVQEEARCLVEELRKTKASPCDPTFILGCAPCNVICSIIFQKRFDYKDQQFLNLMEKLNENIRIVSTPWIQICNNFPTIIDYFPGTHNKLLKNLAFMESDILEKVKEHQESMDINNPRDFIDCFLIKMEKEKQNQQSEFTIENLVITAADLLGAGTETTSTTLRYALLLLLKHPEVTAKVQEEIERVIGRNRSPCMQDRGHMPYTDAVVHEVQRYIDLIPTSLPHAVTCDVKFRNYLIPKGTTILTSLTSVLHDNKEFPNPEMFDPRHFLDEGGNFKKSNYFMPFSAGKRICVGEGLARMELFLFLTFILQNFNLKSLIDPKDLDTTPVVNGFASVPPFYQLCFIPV
Chain of Fms kinase (P07333 20-972): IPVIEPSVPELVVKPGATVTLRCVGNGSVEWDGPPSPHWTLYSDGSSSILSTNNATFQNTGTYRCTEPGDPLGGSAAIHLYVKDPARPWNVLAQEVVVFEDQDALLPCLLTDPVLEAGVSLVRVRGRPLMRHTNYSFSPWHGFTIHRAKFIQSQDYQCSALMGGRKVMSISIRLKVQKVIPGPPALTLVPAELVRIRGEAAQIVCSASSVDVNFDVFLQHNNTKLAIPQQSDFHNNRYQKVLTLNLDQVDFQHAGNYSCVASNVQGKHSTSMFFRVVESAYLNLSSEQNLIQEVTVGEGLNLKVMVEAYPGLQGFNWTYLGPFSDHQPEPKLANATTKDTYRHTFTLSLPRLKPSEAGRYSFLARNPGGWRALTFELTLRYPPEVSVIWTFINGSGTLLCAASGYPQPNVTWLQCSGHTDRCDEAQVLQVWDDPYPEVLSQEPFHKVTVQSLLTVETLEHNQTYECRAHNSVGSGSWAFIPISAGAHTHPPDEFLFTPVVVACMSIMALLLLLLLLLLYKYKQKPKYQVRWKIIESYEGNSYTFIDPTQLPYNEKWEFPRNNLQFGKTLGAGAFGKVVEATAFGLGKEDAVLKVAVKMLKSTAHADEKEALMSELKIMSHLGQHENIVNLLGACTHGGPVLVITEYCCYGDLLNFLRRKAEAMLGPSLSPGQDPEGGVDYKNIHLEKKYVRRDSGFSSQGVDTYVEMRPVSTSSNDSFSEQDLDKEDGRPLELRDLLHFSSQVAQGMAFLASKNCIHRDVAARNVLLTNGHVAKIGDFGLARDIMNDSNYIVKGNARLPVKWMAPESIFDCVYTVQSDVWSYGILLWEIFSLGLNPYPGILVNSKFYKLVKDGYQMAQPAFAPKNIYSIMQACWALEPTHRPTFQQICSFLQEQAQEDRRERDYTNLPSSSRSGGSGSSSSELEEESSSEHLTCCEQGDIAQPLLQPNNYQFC
Chain of TrkA kinase (P04629 33-796): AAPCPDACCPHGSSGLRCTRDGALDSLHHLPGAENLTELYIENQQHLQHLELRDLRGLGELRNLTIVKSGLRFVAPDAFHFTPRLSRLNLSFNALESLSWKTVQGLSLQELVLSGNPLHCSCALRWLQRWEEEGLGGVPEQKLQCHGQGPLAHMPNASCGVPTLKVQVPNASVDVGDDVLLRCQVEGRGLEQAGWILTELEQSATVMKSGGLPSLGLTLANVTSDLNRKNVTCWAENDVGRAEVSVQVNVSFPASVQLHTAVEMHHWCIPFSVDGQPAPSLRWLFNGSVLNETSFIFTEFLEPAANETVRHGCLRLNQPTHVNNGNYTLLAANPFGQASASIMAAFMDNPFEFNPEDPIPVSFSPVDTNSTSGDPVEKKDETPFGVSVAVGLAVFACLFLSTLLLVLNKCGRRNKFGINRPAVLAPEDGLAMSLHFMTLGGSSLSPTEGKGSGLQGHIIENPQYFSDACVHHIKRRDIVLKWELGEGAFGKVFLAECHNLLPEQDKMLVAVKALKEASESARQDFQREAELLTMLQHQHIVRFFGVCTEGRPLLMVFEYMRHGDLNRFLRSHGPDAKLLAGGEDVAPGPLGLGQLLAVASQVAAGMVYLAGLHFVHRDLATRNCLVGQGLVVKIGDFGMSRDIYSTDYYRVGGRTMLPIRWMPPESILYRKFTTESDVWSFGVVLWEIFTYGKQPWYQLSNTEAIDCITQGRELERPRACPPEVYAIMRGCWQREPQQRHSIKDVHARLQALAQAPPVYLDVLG

SMILES | IC50 [1] [µM] | IC50 [2] [µM] | IC50 [3] [µM] | IC50 [4] [µM]
COc1ccc(Nc2ccc(C(=O)c3c[nH]c4ncnc(N5CCCCC5)c34)c(F)n2)cn1 [Compound P-4069, [2-fluoro-6-[(6-methoxy-3-pyridyl)amino]-3-pyridyl]-[4-(1-piperidyl)-7H-pyrrolo[2,3-d]pyrimidin-5-yl]methanone] | < 1 | < 0.1 | 5 to 10 | > 10
COc1ccc(Nc2ccc(C(=O)c3c[nH]c4ncnc(N5CCOCC5)c34)c(F)n2)cn1 [Compound P-4070, [2-fluoro-6-[(6-methoxy-3-pyridyl)amino]-3-pyridyl]-(4-morpholino-7H-pyrrolo[2,3-d]pyrimidin-5-yl)methanone] | > 1 | > 1 | > 10 | > 10
COc1ccc(Nc2ccc(C(=O)c3c[nH]c4ncnc(NCc5ccc(C(F)(F)F)nc5)c34)c(F)n2)cn1 [Compound P-4071, [2-fluoro-6-[(6-methoxy-3-pyridyl)amino]-3-pyridyl]-[4-[[6-(trifluoromethyl)-3-pyridyl]methylamino]-7H-pyrrolo[2,3-d]pyrimidin-5-yl]methanone] | < 1 | < 0.01 | > 10 | > 10
COc1ccc(Nc2ccc(C(=O)c3c[nH]c4ncnc(N[C@@H](C)c5ccc(F)cc5)c34)c(F)n2)cn1 [Compound P-4072, [2-fluoro-6-[(6-methoxy-3-pyridyl)amino]-3-pyridyl]-[4-[[(1S)-1-(4-fluorophenyl)ethyl]amino]-7H-pyrrolo[2,3-d]pyrimidin-5-yl]methanone] | < 0.1 | < 0.1 | < 10 | > 10
COc1ccc(Nc2ccc(C(=O)c3c[nH]c4ncnc(NCC5CCCO5)c34)c(F)n2)cn1 (stereo not drawn) [Compound P-4073, [2-fluoro-6-[(6-methoxy-3-pyridyl)amino]-3-pyridyl]-[4-(tetrahydrofuran-2-ylmethylamino)-7H-pyrrolo[2,3-d]pyrimidin-5-yl]methanone] | < 0.1 | < 0.01 | 5 to 10 | > 10
CCN1CCC(Nc2ncnc3[nH]cc(C(=O)c4ccc(Nc5ccc(OC)nc5)nc4F)c23)CC1 [Compound P-4074, [4-[(1-ethyl-4-piperidyl)amino]-7H-pyrrolo[2,3-d]pyrimidin-5-yl]-[2-fluoro-6-[(6-methoxy-3-pyridyl)amino]-3-pyridyl]methanone] | < 0.1 | < 0.01 | 5 to 10 | > 10
COc1ccc(Nc2ccc(C(=O)c3c[nH]c4ncnc(NC5CCC5)c34)c(F)n2)cn1 [Compound P-4076, [4-(cyclobutylamino)-7H-pyrrolo[2,3-d]pyrimidin-5-yl]-[2-fluoro-6-[(6-methoxy-3-pyridyl)amino]-3-pyridyl]methanone] | < 0.01 | < 0.01 | 5 to 10 | > 5
CCC(CC)Nc1ncnc2[nH]cc(C(=O)c3ccc(Nc4ccc(OC)nc4)nc3F)c12 [Compound P-4077, [4-(1-ethylpropylamino)-7H-pyrrolo[2,3-d]pyrimidin-5-yl]-[2-fluoro-6-[(6-methoxy-3-pyridyl)amino]-3-pyridyl]methanone] | < 0.1 | < 0.01 | 5 to 10 | > 10

Continued, values first:

IC50 [1] [µM] | IC50 [2] [µM] | IC50 [3] [µM] | IC50 [4] [µM] | SMILES
< 0.01 | < 0.01 | > 10 | > 10 | CNc1ncnc2[nH]cc(C(=O)c3ccc(NC4CCC(F)(F)CC4)nc3F)c12 [Compound P-4063, [6-[(4,4-difluorocyclohexyl)amino]-2-fluoro-3-pyridyl]-[4-(methylamino)-7H-pyrrolo[2,3-d]pyrimidin-5-yl]methanone]
< 0.01 | < 0.01 | > 10 | > 10 | CCc1ccc(Nc2ccc(C(=O)c3c[nH]c4ncnc(NCC(C)(C)O)c34)c(F)n2)cn1 [Compound P-4064, [6-[(6-ethyl-3-pyridyl)amino]-2-fluoro-3-pyridyl]-[4-[(2-hydroxy-2-methyl-propyl)amino]-7H-pyrrolo[2,3-d]pyrimidin-5-yl]methanone]
< 0.01 | < 0.01 | > 10 | > 10 | CCc1ccc(Nc2ccc(C(=O)c3c[nH]c4ncnc(N)c34)c(F)n2)cn1 [Compound P-4065, (4-amino-7H-pyrrolo[2,3-d]pyrimidin-5-yl)-[6-[(6-ethyl-3-pyridyl)amino]-2-fluoro-3-pyridyl]methanone]
< 0.01 | < 0.01 | > 10 | 5 to 10 | COc1ccc(Nc2ccc(C(=O)c3c[nH]c4ncnc(NC(C)C)c34)c(F)n2)cn1 [Compound P-4066, [2-fluoro-6-[(6-methoxy-3-pyridyl)amino]-3-pyridyl]-[4-(isopropylamino)-7H-pyrrolo[2,3-d]pyrimidin-5-yl]methanone]
< 0.01 | < 0.01 | 5 to 10 | > 10 | COc1ccc(Nc2ccc(C(=O)c3c[nH]c4ncnc(NCC5CC5)c34)c(F)n2)cn1 [Compound P-4067, [4-(cyclopropylmethylamino)-7H-pyrrolo[2,3-d]pyrimidin-5-yl]-[2-fluoro-6-[(6-methoxy-3-pyridyl)amino]-3-pyridyl]methanone]
< 0.01 | < 0.01 | > 10 | > 10 | CCCNc1ncnc2[nH]cc(C(=O)c3ccc(Nc4ccc(OC)nc4)nc3F)c12 [Compound P-4068, [2-fluoro-6-[(6-methoxy-3-pyridyl)amino]-3-pyridyl]-[4-(propylamino)-7H-pyrrolo[2,3-d]pyrimidin-5-yl]methanone]
< 0.01 | < 0.01 | 5 to 10 | > 10 | COc1ccc(Nc2ccc(C(=O)c3c[nH]c4ncnc(NC5CCCC5)c34)c(F)n2)cn1 [Compound P-4075, [4-(cyclopentylamino)-7H-pyrrolo[2,3-d]pyrimidin-5-yl]-[2-fluoro-6-[(6-methoxy-3-pyridyl)amino]-3-pyridyl]methanone]
